# Results as given in US12522607B2, “Substituted pyrazolo[3,4-d]pyrimidines as wee-1 inhibitors” (WIGEN BIOMEDICINE TECHNOLOGY (SHANGHAI) CO., LTD., priority 2020, dated 2026).
# What was measured:
# HT29 cells = test: Antiproliferative activity against HT29 cells (Cell Titer-Lumi, ATP content); assay type: cell-based; details: Homo sapiens, HT-29, 72 after compound addition, read-out: HT-29 cells Anti-proliferative activity (IC50 for the inhibition against HT-29 cell growth)
# Method in brief: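 3000 cells per well, allowed to adhere overnight, then exposed to a gradient dilution of compound for 72 (units as printed). Cellular ATP read by luminescence (Cell Titer-Lumi) as a growth measure; IC50 for growth inhibition calculated.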
# [1] = Pharmacokinetic evaluation in mice; assay type: in vivo, male ICR mice; details: for AUC(0-t) / clearance / half-life / Vd / Cmax / Tmax: male, ICR, mouse, plasma; for Vd: read-out: Vss; for F: po 10 mg/kg vs iv 2 mg/kg
# Procedure: Example 344. Pharmacokinetic Evaluation in Mice
# The compounds were administered by intravenous injection at a dose of 2 mg/kg and oral gavage at a dose of 10 mg/kg (0.5% CMC-Na suspension). 15 male ICR mice were selected for each group, and each mouse was subjected to blood collection at 3 discrete time points, with 3 mice at each time point. The time points of sampling were as follows: before administration, and 5 min, 15 min, 30 min, 1 h, 3 h, 5 h, 8 h, 12 h and 24 h after administration. 80 μL of blood was collected from the orbits or hearts of the mice at each time point after administration. All whole blood samples were collected in tubes containing EDTA K2 and centrifuged (1500-1600 rmp/min) at 4° C. for 10 min to isolate plasma, which was then stored in a refrigerator at −90° C. to −60° C. for sample analysis. The compound concentration in the plasma was determined by liquid chromatography-tandem mass spectrometry, and the corresponding pharmacokinetic parameters were obtained according to a plasma concentration-time curve.
# Wee-1 kinase = target: T1, Wee-1 kinase (Homo sapiens, UniProt P30291); test: Inhibitory activity against Wee-1 kinase (Lanthra Screen Wee-1 kinase kit, Tracer 178); assay type: binding; details: Wee-1 kinase 5 nM, Tracer 178 50 nM, 1 h room temperature
# T1 construct: purchased Invitrogen
# T1 sequence (P30291 whole entry): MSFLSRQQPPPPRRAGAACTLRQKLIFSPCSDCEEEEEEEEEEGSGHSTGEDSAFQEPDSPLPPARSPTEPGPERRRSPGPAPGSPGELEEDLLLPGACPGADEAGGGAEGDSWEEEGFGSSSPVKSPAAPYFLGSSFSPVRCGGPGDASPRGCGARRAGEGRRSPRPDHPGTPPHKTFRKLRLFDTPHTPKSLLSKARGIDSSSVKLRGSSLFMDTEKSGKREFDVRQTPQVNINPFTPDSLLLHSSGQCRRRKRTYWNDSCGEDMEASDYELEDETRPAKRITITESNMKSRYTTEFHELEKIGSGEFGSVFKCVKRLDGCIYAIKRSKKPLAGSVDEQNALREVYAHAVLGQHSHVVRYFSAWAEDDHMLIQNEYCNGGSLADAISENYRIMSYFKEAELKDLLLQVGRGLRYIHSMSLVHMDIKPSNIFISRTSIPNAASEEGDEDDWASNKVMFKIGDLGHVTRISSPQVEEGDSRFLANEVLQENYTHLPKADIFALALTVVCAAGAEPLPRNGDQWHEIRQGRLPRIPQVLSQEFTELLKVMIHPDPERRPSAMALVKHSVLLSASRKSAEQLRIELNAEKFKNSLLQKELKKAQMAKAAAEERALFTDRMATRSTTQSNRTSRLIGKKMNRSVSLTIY
# Method in brief: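 LanthaScreen binding format: Wee-1 kinase (5 nM final) with Eu-anti-GST antibody (2 nM final) and kinase Tracer 178 (50 nM final), compounds serially diluted in DMSO. 1 h at room temperature before reading. IC50 relative to DMSO control.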
# [2] = po, 10 mg/kg, 0.5% CMC-Na suspension
Compound,IC50 (HT29 cells) [nM],IC50 (Wee-1 kinase) [nM],also measured
"C=CCn1c(=O)c2cnc(Nc3ccc(N4CCN(C)CC4)cc3)nc2n1-c1cccc(C(C)(C)O)n1 [AZD-1775, reference compound]",≤ 1000,–,"AUC(0-t) ([1]; iv, 2 mg/kg): 152 ng·h/mL; clearance ([1]; iv, 2 mg/kg): 220 mL/min/kg; half-life ([1]; iv, 2 mg/kg): 18 min; Vd ([1]; iv, 2 mg/kg): 3.51 L/kg; AUC(0-t) [1, 2]: 215 ng·h/mL; Cmax [1, 2]: 247 ng/mL; Tmax [1, 2]: 30 min; half-life [1, 2]: 87 min; F [1]: 28.3%"
C=CCn1c(=O)c2cnc(Nc3ccc(N4CCN(C)CC4)cc3)nc2n1-c1ccc(=O)n(C(C)C)n1 [Compound 3],≤ 1000,≤ 30,"oral absorption characteristics (in words) ([1]; compared with control drug AZD-1775): good oral absorption characteristics; AUC(0-t) ([1]; iv, 2 mg/kg): 736 ng·h/mL; clearance ([1]; iv, 2 mg/kg): 45.3 mL/min/kg; half-life ([1]; iv, 2 mg/kg): 43.1 min; Vd ([1]; iv, 2 mg/kg): 1.8 L/kg; AUC(0-t) [1, 2]: 1210 ng·h/mL; Cmax [1, 2]: 533 ng/mL; Tmax [1, 2]: 15 min; half-life [1, 2]: 115 min; F [1]: 32.9%"
CC(C)n1cc(-n2c3nc(Nc4ccc5c(c4)CN(C)CC54CC4)ncc3c(=O)n2C(C)C)cc(F)c1=O [Compound 322],≤ 1000,≤ 30,–
CC(C)n1cc(-n2c3nc(Nc4ccc(N5CCN(C)CC5)cc4)ncc3c(=O)n2C2CC2)cc(F)c1=O [Compound 323],≤ 1000,≤ 30,–
Cc1cc(Nc2ncc3c(=O)n(C4CC4)n(-c4cc(F)c(=O)n(C(C)C)c4)c3n2)ccc1N1CCN(C)CC1 [Compound 324],≤ 1000,≤ 30,–
Cc1cc(Nc2ncc3c(=O)n(C4CC4)n(-c4cc(F)c(=O)n(C(C)C)c4)c3n2)ccc1C1CCN(C)CC1 [Compound 325],≤ 1000,≤ 30,–
CC(C)n1cc(-n2c3nc(Nc4ccc5c(c4)CN(C)CC54CC4)ncc3c(=O)n2C2CC2)cc(F)c1=O [Compound 326],≤ 1000,≤ 30,–
C=CCn1c(=O)c2cnc(Nc3ccc(N4CCN(C)CC4)c(C)c3)nc2n1-c1ccc(=O)n(C(C)(C)C)c1 [Compound 327],≤ 1000,≤ 30,–
C=CCn1c(=O)c2cnc(Nc3ccc(C4CCN(C)CC4)c(C)c3)nc2n1-c1ccc(=O)n(C(C)(C)C)c1 [Compound 328],≤ 1000,≤ 30,–
C=CCn1c(=O)c2cnc(Nc3ccc4c(c3)CN(C)CC43CC3)nc2n1-c1ccc(=O)n(C(C)(C)C)c1 [Compound 329],≤ 1000,≤ 30,–
CCn1c(=O)c2cnc(Nc3ccc(N4CCN(C)CC4)cc3)nc2n1-c1ccc(=O)n(C(C)(C)C)c1 [Compound 330],≤ 1000,≤ 30,–
CCn1c(=O)c2cnc(Nc3ccc(N4CCN(C)CC4)c(C)c3)nc2n1-c1ccc(=O)n(C(C)(C)C)c1 [Compound 331],≤ 1000,≤ 30,–
CCn1c(=O)c2cnc(Nc3ccc(C4CCN(C)CC4)c(C)c3)nc2n1-c1ccc(=O)n(C(C)(C)C)c1 [Compound 332],≤ 1000,≤ 30,–
CCn1c(=O)c2cnc(Nc3ccc4c(c3)CN(C)CC43CC3)nc2n1-c1ccc(=O)n(C(C)(C)C)c1 [Compound 333],≤ 1000,≤ 30,–
CC(C)n1c(=O)c2cnc(Nc3ccc(N4CCN(C)CC4)cc3)nc2n1-c1ccc(=O)n(C(C)(C)C)c1 [Compound 334],≤ 1000,≤ 30,–
Cc1cc(Nc2ncc3c(=O)n(C(C)C)n(-c4ccc(=O)n(C(C)(C)C)c4)c3n2)ccc1N1CCN(C)CC1 [Compound 335],≤ 1000,≤ 30,–
Cc1cc(Nc2ncc3c(=O)n(C(C)C)n(-c4ccc(=O)n(C(C)(C)C)c4)c3n2)ccc1C1CCN(C)CC1 [Compound 336],≤ 1000,≤ 30,–
CC(C)n1c(=O)c2cnc(Nc3ccc4c(c3)CN(C)CC43CC3)nc2n1-c1ccc(=O)n(C(C)(C)C)c1 [Compound 337],≤ 1000,≤ 30,–
CN1CCN(c2ccc(Nc3ncc4c(=O)n(C5CC5)n(-c5ccc(=O)n(C(C)(C)C)c5)c4n3)cc2)CC1 [Compound 338],≤ 1000,≤ 30,–
Cc1cc(Nc2ncc3c(=O)n(C4CC4)n(-c4ccc(=O)n(C(C)(C)C)c4)c3n2)ccc1N1CCN(C)CC1 [Compound 339],≤ 1000,≤ 30,–
Cc1cc(Nc2ncc3c(=O)n(C4CC4)n(-c4ccc(=O)n(C(C)(C)C)c4)c3n2)ccc1C1CCN(C)CC1 [Compound 340],≤ 1000,≤ 30,–
CN1Cc2cc(Nc3ncc4c(=O)n(C5CC5)n(-c5ccc(=O)n(C(C)(C)C)c5)c4n3)ccc2C2(CC2)C1 [Compound 341],≤ 1000,≤ 30,–
